Data: ChEMBL document CHEMBL1201862, “PubChem BioAssay data set” (2004)
The source made the active and inactive calls.

How the values were obtained:
[1] = biological target: T1, DNA repair and recombination protein RAD54-like (Homo sapiens, UniProt Q92698); experiment: RAD54 Holliday junction migration blockers – biochemical, fluorescence, cherry-picked samples, dose series, confirmation (AID 651657); format: functional
T1 sequence (Q92698 whole entry): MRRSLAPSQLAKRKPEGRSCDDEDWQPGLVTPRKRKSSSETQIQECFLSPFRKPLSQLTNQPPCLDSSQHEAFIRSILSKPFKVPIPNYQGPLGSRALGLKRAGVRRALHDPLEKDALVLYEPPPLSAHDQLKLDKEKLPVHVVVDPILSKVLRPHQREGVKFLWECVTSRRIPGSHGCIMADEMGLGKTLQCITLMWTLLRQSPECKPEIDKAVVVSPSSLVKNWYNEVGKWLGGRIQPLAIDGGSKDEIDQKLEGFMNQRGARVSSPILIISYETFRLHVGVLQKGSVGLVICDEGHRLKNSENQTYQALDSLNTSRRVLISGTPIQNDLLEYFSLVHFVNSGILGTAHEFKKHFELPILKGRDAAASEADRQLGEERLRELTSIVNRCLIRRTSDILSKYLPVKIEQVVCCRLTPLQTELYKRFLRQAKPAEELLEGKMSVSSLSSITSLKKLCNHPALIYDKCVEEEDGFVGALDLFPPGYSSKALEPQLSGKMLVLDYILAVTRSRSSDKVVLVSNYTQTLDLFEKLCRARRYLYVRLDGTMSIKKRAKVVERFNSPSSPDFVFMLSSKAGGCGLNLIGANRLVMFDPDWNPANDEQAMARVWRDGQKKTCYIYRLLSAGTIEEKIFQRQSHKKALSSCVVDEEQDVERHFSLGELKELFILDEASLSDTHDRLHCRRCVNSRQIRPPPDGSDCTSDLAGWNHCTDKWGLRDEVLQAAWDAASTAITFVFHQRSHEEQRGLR

[2] = biological target: Peroxisome proliferator-activated receptor gamma/Nuclear receptor coactivator 1 (Homo sapiens, UniProt P37231); experiment: TR-FRET dose response biochemical High Throughput Screening assay for agonists of the steroid receptor coactivator 1 (SRC-1) recruitment by the peroxisome proliferator-activated receptor gamma (PPAR gamma): non-selective agonists. [Related pubchem assays (depositor defined):AID1300, AID1808, AID504735, AID631]; format: protein assay
[3] = biological target: Peroxisome proliferator-activated receptor gamma/Nuclear receptor coactivator 2 (Homo sapiens, UniProt P37231); experiment: (§1) TR-FRET dose response biochemical High Throughput Screening assay for agonists of the steroid receptor coactivator 2 (SRC-2) recruitment by the peroxisome proliferator-activated receptor gamma (PPAR gamma): non-selective agonists. [Related pubchem assays: 1297, 1032 ]; format: functional
[4] = biological target: Peroxisome proliferator-activated receptor gamma/Nuclear receptor coactivator 3 (Homo sapiens, UniProt P37231); experiment: as §1, with “3 (SRC-3)” for “2 (SRC-2)”, “1301 (Confirmation screen.), 1048 (Primary screen.)]” for “1297, 1032 ]”; format: functional
[5] = biological target: T2, Ubiquitin-conjugating enzyme E2 N (Homo sapiens, UniProt P61088); format: functional;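 note: Dose-response confirmation in a TR-FRET assay detecting UBC13-driven polyubiquitin chain formation, inhibition measured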
T2 sequence (P61088 whole entry): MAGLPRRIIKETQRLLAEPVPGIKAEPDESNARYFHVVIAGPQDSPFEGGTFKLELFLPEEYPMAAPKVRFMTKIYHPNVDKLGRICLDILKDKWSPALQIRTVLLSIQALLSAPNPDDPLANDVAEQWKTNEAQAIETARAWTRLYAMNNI

Cytochrome P450 2C19 = Cytochrome P450 2C19 (Homo sapiens, UniProt P33261); experiment: Cytochrome panel assay with activity outcomes. Panel member name: p450-cyp2c19 Compounds with AC50 equal or less than 10 uM are considered active; format: functional
[6] = biological target: DNA (cytosine-5)-methyltransferase 1 (Homo sapiens, UniProt P26358); experiment: inhibition of DNA methylation by DNMT1 – biochemical, fluorescent molecular beacon, confirmation (AID 602386); format: functional
[7] = biological target: T3, Type-1 angiotensin II receptor (Homo sapiens, UniProt P30556); experiment: antagonism of angiotensin II type 1 receptor – cell-based, uHTS hits, selectivity assay for APJ receptor antagonist project, dose response (AID 463214); format: functional;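 note: antagonist potency against angiotensin II stimulated AT1 response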
T3 sequence (P30556 whole entry): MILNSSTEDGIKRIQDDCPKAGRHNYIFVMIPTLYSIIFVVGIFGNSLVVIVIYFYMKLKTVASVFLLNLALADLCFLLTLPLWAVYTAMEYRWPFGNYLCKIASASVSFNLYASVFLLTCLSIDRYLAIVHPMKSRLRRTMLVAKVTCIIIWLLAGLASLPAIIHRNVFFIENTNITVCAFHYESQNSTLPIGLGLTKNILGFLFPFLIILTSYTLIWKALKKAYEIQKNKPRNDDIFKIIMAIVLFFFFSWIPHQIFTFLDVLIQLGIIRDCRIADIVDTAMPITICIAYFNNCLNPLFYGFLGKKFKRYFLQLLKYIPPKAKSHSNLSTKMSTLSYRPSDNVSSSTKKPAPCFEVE

Beta-galactosidase = Beta-galactosidase (Escherichia coli, UniProt Q8VNN2); experiment: PubChem AID 485352; format: functional
[8] = Trypanosoma cruzi growth suppression in host cells – NIH3T3 host cells, beta-gal luminescence, confirmation (AID 2044); format: functional, cell-based;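 note: intracellular parasites grown in NIH/3T3 mouse fibroblasts as host cells; luminescent beta-galactosidase reporter signal from transgenic T. cruzi replicating inside host cells; inhibitors lower the luminescence signal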
[9] = NIH3T3 cell viability loss – ATP luminescence, mouse fibroblasts, counter-screen, dose response (AID 2010); format: functional, cell-based;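 note: cells exposed to compound for about 90 hours before reading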
[10] = biological target: T4, Microphthalmia-associated transcription factor (Homo sapiens, UniProt O75030); experiment: reducers of TRPM1 reporter luminescence, concentration series – cell-based, SK-MEL-5, cherry-picked, set 3, MITF inhibitor project, dose response (AID 493073); format: functional;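 note: SK-MEL-5 melanoma cells with luciferase driven by the MITF target TRPM1 promoter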
T4 sequence (O75030 whole entry): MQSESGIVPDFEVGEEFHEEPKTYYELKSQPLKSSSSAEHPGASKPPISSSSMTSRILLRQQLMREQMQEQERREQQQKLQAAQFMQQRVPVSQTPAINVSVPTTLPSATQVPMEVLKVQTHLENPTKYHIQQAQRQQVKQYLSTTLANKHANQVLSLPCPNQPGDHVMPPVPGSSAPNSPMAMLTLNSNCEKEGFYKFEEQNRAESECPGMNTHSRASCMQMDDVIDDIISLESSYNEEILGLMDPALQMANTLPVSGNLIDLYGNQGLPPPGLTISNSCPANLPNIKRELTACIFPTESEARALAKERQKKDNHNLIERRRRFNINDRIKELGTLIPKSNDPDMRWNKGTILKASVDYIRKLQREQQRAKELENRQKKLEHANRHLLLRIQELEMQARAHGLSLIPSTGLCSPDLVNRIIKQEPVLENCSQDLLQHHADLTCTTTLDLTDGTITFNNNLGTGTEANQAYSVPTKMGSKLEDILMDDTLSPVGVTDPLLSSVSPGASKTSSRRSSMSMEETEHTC

Streptococcus = experiment: GAS UMAA2166 growth inhibition – luminescence, BacTiterGlo, counter-screen for streptokinase expression inhibitor project, dose response (AID 1915); format: functional, organism-based;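 note: potency for reduction of bacterial viability or growth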
[11] = test system: Streptococcus sp. 'group A'; experiment: Streptococcus pyogenes SK(-)GAS viability under kanamycin – luminescence, BacTiterGlo, confirmation, counter-screen for streptokinase expression inhibitor project, dose response (AID 1900); format: functional, organism-based
INS1 = experiment: INS-1E survival protection against cytokine death – cell-based, luminescence, retest, dose response (AID 449756); format: functional; settings: Rattus norvegicus;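 note: cell death triggered by IL-1 beta plus TNF-alpha plus IFN-gamma mixture; protective hits raise ATP signal compared with cytokine alone wells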
[12] = DRD fibroblast viability loss – cell-based, non-viral oncogenic, luminescence, dose response (AID 1934); format: functional; settings: Homo sapiens
BJ [13] = experiment: BJ-TERT-LT-ST fibroblast viability loss – cell-based, RAS-independent, luminescence, dose response (AID 1935); format: functional; settings: Homo sapiens;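 note: BJ fibroblasts immortalized with TERT plus LT and ST oncogenes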
BJ [14] = experiment: BJ-TERT fibroblast viability loss – cell-based, RAS-independent, luminescence, dose response (AID 1933); format: functional; settings: Homo sapiens
BJ [15] = experiment: cells; format: functional, cell-based; settings: Homo sapiens
[16] = biological target: T5, Short transient receptor potential channel 4 (Mus musculus, UniProt Q9QUQ5); experiment: block of DAMGO-driven TRPC4 calcium entry – cell-based, HEK293 TRPC4/mu-opioid, Fluo-4 calcium, dose response (AID 434942); format: functional;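 note: potency of inhibitors blocking the TRPC4 calcium response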
T5 sequence (Q9QUQ5 whole entry): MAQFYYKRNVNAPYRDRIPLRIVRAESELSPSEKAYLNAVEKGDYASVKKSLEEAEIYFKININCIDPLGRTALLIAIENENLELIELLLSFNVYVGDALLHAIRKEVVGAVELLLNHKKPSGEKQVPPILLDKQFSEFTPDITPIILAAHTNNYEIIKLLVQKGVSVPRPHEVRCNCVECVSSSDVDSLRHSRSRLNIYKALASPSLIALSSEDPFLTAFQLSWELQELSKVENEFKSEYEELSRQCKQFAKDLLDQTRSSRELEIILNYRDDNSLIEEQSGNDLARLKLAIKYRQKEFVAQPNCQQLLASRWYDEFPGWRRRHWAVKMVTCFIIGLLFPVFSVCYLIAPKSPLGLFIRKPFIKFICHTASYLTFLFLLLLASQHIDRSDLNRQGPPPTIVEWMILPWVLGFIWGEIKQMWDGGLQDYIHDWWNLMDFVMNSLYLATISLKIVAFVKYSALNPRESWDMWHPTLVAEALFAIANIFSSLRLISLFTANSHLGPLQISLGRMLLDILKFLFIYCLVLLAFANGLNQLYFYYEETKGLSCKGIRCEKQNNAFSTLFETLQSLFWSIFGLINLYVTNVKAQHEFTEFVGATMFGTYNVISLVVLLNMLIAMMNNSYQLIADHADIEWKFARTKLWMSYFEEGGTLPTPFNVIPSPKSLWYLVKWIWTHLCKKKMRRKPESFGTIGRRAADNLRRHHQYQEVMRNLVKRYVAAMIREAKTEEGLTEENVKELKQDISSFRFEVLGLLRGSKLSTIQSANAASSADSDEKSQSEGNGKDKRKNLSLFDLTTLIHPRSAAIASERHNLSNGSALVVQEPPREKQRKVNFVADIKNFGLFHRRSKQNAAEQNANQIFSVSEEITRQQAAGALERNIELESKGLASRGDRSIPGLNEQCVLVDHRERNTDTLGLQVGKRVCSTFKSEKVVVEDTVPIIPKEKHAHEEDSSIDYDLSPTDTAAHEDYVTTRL

Chain of Peroxisome proliferator-activated receptor gamma/Nuclear receptor coactivator 3 (P37231 whole entry): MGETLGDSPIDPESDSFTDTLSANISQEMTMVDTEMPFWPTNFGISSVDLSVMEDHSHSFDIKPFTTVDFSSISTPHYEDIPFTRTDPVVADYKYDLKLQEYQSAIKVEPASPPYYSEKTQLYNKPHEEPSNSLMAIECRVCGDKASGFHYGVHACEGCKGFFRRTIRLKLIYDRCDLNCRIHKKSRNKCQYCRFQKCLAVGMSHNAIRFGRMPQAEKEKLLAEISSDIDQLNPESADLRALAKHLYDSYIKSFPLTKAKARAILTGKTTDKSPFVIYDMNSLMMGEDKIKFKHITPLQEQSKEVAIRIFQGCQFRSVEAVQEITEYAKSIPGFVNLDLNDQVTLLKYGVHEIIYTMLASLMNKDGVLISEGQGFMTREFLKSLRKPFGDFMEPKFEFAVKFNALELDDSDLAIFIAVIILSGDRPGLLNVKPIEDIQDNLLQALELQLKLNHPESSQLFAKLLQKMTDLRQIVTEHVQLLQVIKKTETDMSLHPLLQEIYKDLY
Chain of Peroxisome proliferator-activated receptor gamma/Nuclear receptor coactivator 3 (Q9Y6Q9 whole entry, further chain): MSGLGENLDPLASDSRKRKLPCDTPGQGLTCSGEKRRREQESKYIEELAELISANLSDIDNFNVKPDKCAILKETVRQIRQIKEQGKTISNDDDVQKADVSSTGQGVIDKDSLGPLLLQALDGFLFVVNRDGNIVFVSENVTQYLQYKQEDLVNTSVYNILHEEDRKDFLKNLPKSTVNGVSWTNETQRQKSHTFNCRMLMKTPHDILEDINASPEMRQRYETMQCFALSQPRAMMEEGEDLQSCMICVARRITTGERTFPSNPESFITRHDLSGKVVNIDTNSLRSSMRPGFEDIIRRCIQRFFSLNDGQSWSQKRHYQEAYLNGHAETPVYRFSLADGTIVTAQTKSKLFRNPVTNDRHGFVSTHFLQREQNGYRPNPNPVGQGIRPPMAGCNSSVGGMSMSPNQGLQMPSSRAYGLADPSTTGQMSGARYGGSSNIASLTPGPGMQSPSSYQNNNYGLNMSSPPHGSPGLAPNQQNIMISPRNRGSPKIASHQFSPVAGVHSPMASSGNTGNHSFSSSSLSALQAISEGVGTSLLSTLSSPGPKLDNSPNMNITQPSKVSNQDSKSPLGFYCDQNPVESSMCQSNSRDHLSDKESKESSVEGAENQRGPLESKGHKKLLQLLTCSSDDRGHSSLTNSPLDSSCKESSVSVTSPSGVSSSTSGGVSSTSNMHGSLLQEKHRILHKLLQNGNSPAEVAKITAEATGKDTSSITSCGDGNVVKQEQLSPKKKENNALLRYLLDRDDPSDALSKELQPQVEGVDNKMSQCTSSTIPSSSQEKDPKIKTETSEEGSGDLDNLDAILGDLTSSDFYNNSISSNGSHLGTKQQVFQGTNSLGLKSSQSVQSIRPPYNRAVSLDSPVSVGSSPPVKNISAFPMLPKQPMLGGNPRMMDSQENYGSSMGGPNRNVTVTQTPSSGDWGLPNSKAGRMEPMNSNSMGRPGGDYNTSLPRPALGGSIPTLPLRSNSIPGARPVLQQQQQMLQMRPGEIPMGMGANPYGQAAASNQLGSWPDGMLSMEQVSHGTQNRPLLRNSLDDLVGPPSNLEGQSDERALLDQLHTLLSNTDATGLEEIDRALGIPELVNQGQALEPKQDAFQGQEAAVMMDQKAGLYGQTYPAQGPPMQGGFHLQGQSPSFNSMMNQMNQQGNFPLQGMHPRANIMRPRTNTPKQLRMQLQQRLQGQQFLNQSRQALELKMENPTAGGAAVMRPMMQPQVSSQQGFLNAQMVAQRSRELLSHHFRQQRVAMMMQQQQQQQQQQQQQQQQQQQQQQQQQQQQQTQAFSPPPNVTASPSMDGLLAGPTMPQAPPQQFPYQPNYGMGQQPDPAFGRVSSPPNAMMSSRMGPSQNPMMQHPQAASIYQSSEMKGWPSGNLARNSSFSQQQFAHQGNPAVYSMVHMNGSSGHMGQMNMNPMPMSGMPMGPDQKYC
Chain of Peroxisome proliferator-activated receptor gamma/Nuclear receptor coactivator 2 (P37231 whole entry): as the sequence (P37231 whole entry) above
Chain of Peroxisome proliferator-activated receptor gamma/Nuclear receptor coactivator 2 (Q15596 whole entry, further chain): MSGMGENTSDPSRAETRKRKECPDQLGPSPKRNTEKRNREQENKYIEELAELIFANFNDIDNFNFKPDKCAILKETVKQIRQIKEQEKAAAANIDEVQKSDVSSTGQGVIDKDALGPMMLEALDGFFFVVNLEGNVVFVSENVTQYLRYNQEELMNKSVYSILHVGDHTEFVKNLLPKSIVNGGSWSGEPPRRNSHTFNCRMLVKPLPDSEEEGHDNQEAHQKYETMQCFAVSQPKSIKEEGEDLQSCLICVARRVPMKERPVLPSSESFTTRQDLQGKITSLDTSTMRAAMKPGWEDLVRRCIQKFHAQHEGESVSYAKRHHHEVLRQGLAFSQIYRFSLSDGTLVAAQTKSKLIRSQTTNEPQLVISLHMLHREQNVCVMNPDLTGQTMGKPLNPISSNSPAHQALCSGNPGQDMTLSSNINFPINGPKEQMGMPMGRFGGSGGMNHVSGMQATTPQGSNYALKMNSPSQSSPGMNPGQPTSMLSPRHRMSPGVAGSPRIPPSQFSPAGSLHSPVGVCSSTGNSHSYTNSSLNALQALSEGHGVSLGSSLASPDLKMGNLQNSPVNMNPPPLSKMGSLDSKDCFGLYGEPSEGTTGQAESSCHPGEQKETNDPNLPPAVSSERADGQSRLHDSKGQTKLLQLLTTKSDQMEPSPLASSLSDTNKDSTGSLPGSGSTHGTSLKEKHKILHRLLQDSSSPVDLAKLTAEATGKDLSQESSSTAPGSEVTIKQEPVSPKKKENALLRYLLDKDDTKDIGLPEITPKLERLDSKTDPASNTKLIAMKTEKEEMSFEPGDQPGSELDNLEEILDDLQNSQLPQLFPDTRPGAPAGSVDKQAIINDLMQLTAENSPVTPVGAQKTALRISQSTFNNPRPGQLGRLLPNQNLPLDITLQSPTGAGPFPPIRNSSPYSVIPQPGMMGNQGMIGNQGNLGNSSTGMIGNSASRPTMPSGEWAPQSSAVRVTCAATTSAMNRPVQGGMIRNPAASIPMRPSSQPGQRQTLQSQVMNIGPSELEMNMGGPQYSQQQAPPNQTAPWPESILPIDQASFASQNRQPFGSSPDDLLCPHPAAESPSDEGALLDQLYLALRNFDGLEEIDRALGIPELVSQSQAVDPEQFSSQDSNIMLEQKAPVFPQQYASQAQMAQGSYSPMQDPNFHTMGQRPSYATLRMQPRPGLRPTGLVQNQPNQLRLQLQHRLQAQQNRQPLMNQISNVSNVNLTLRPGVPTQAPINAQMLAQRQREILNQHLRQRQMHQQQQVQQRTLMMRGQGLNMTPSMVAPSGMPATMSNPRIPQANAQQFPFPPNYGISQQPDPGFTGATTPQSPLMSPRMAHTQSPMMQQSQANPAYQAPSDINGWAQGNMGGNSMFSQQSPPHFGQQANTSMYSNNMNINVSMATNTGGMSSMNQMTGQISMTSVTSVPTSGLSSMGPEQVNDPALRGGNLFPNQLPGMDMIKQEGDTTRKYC
Chain of Beta-galactosidase (Q8VNN2 whole entry): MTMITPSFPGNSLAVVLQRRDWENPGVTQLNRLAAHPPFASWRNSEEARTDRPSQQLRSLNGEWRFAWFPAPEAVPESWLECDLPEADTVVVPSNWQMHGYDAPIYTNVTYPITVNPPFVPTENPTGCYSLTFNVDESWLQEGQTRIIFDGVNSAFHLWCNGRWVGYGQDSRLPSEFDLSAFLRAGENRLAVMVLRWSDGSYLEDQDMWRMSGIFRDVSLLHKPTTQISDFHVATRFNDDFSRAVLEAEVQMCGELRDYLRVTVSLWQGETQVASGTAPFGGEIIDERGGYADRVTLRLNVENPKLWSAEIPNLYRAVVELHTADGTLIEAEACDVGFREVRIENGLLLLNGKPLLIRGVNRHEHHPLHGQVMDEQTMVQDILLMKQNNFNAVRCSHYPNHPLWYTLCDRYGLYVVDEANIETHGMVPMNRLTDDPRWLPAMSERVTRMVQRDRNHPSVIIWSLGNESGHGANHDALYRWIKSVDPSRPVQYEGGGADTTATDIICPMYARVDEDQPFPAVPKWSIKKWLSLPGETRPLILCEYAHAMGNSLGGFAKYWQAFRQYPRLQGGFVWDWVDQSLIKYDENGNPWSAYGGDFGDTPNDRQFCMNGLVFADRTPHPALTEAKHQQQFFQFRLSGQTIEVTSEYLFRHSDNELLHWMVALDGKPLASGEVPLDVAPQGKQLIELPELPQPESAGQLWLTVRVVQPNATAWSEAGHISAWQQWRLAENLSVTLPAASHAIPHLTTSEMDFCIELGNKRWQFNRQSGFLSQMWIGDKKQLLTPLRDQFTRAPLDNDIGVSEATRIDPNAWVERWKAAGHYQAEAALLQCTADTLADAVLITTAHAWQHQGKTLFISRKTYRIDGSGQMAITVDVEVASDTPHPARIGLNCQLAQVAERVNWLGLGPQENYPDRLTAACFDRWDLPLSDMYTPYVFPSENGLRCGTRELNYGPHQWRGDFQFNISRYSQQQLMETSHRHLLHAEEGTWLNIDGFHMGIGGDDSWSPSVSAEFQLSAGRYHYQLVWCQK

Row | SMILES | EC50 [2] | EC50 [3] | EC50 [4] | IC50 [7] | EC50 (Beta-galactosidase) | also measured
1 | CCCN1CCN(CCCNC(=O)c2cc3c(=O)n(C)c4ccccc4c3n2C)CC1 | – | – | – | – | – | AC50 [1]: 34.7 µM (active)
2 | CN1CCC(N(C)c2nc(-c3ccccc3)nc3ccccc23)CC1 | – | – | – | – | – | AC50 [1]: 18.1 µM (active)
3 | COc1ccc(CC(=O)Nc2ccc(-c3nc4cc(C)ccc4o3)c(O)c2)cc1OC | 27.8 µM (inactive) | 24 µM (not active) | > 79.4 µM (not active) | – | – | –
4 | CCc1cc2c(=O)n(-c3ccccc3)c(=S)[nH]c2s1 | > 79.4 µM (inactive) | > 79.4 µM (not active) | > 79.4 µM (not active) | – | – | IC50 [5]: > 20 µM (inactive); AC50 (Cytochrome P450 2C19): inconclusive
5 | O=C(c1ccc(=O)oc1)N1CCOCC1 | – | – | – | – | – | IC50 [6]: 3.67 µM (active)
6 | COc1ccc2nc(C)cc(Nc3ccc(N4CCOCC4)cc3)c2c1 | – | – | – | – | – | EC50 [8]: 1.79 µM (active); AC50 [1]: 17.4 µM (active); EC50 [9]: 27 µM (active)
7 | C/C(=N\NC(=O)COc1ccccc1-c1ccccc1)c1ccccn1 | – | – | – | 3.73 µM (active) | > 40 µM (inactive) | AC50 [10]: 4.58 µM (active); EC50 (Streptococcus): 4.08 µM (active); EC50 [11]: 1.05 µM (active); AC50 (INS1): 1.32 µM (active)
8 | Cc1cc[n+](CC(=O)c2cccc([N+](=O)[O-])c2)c2ccccc12 | – | – | – | – | – | EC50 [12]: > 150 µM (not active); EC50 (BJ [13]): > 150 µM (inconclusive); EC50 (BJ [14]): 25.1 µM (active); EC50 (BJ [15]): > 150 µM (not active); IC50 [6]: > 99 µM (inactive)
9 | S=C(N/N=C/c1ccc(Cl)cc1)N1CCOCC1 | – | – | – | 7.99 µM (active) | > 40 µM (inactive) | –
10 | OCC1(CCc2ccccc2)CCN(Cc2ccc3nsnc3c2)CC1 | 42.2 µM (inactive) | 29.1 µM (not active) | > 79.4 µM (not active) | – | – | EC50 [16]: 8.41 µM (active)
11 | Cc1ccc2c(c1)C(=O)C(=O)N2c1ccc(Cl)cc1 | – | – | – | 33.2 µM (not active) | > 40 µM (inactive) | –

More lines, main results first:

Row | EC50 [2] | EC50 [3] | EC50 [4] | IC50 [7] | EC50 (Beta-galactosidase) | SMILES | also measured
12 | – | – | – | 5.7 µM (active) | > 40 µM (inactive) | Cc1ccc(NCC(=O)c2ccccc2)cc1Cl | –
13 | > 79.4 µM (inactive) | > 79.4 µM (not active) | > 79.4 µM (not active) | – | – | Cn1c(=O)cc(SCC(=O)N2CCCC2)c2ccccc21 | –
